In the supplement of paper PMC10307832:

Columns and labels:
Test in all cases: relative viability (nuclei count vs DMSO), 5 days (fraction); higher = more cells survive
Pazopanib + Pemetrexed = compound: Cc1ccc(Nc2nccc(N(C)c3ccc4c(C)n(C)nc4c3)n2)cc1S(N)(=O)=O [Pazopanib] + Nc1nc2[nH]cc(CCc3ccc(C(=O)N[C@@H](CCC(=O)O)C(=O)O)cc3)c2c(=O)[nH]1 [Pemetrexed] (partner 0.2 µM)
In short: (§1)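 Relative viability equals treated-well nuclei counts divided by vehicle-well nuclei counts. Counts came from 4× images of lung cancer cell lines grown in 1536-well plates for 5 days after pin-tool dosing on the day after seeding. Dosing used one drug alone or a fixed anchor-drug dose plus five library-drug doses (not always all listed) in √10 steps, and values are medians of duplicate plates.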

Pazopanib + OSI-027 = compound: Cc1ccc(Nc2nccc(N(C)c3ccc4c(C)n(C)nc4c3)n2)cc1S(N)(=O)=O [Pazopanib] + COc1cccc2cc(-c3nc([C@H]4CC[C@H](C(=O)O)CC4)n4ncnc(N)c34)[nH]c12 [OSI-027] (partner 0.5 µM)
In short: as §1

Pazopanib + Lapatinib = compound: Cc1ccc(Nc2nccc(N(C)c3ccc4c(C)n(C)nc4c3)n2)cc1S(N)(=O)=O [Pazopanib] + CS(=O)(=O)CCNCc1ccc(-c2ccc3ncnc(Nc4ccc(OCc5cccc(F)c5)c(Cl)c4)c3c2)o1 [Lapatinib] (partner 2 µM)
In short: as §1

Ponatinib + Foretinib = compound: Cc1ccc(C(=O)Nc2ccc(CN3CCN(C)CC3)c(C(F)(F)F)c2)cc1C#Cc1cnc2cccnn12 [Ponatinib] + COc1cc2c(Oc3ccc(NC(=O)C4(C(=O)Nc5ccc(F)cc5)CC4)cc3F)ccnc2cc1OCCCN1CCOCC1 [Foretinib] (partner 0.25 µM)
In short: as §1

Cell Line | relative viability (Pazopanib + Pemetrexed; first compound 0.03162 µM) | relative viability (Pazopanib + Pemetrexed; first compound 0.1 µM) | relative viability (Pazopanib + Pemetrexed; first compound 0.3162 µM) | relative viability (Pazopanib + Pemetrexed; first compound 1 µM) | relative viability (Pazopanib + OSI-027; first compound 0.03162 µM) | relative viability (Pazopanib + OSI-027; first compound 0.1 µM) | relative viability (Pazopanib + OSI-027; first compound 0.3162 µM) | relative viability (Pazopanib + OSI-027; first compound 1 µM) | relative viability (Pazopanib + Lapatinib; first compound 0.01 µM) | relative viability (Pazopanib + Lapatinib; first compound 0.03162 µM) | relative viability (Pazopanib + Lapatinib; first compound 0.1 µM) | relative viability (Pazopanib + Lapatinib; first compound 0.3162 µM) | relative viability (Pazopanib + Lapatinib; first compound 1 µM) | relative viability (Ponatinib + Foretinib; first compound 0.002 µM) | relative viability (Ponatinib + Foretinib; first compound 0.006325 µM) | relative viability (Ponatinib + Foretinib; first compound 0.06325 µM) | relative viability (Ponatinib + Foretinib; first compound 0.2 µM) | relative viability (Pazopanib + Pemetrexed; first compound 0.01 µM) | relative viability (Pazopanib + OSI-027; first compound 0.01 µM)
NCI-H1993 | 0.588 | 0.639 | 0.549 | 0.554 | 0.603 | 0.599 | 0.479 | 0.461 | 0.69 | 0.853 | 0.573 | 0.797 | 0.927 | 0.722 | 0.778 | 0.973 | 0.76 | – | –
NCI-H2009 | 1.06 | 0.977 | 0.971 | 0.925 | 0.622 | 0.566 | 0.56 | 0.44 | 0.961 | 0.946 | 0.796 | 0.883 | 0.838 | 1.18 | 1.2 | 1.22 | 1.17 | 1.06 | 0.576
NCI-H2023 | 0.206 | 0.271 | 0.22 | 0.216 | 0.425 | 0.35 | 0.42 | 0.536 | 0.509 | 0.806 | 0.73 | 0.791 | 1.35 | 0.778 | 0.89 | 0.962 | 0.657 | 0.18 | 0.417
NCI-H2085 | 1.09 | 0.804 | 0.949 | 1.03 | 0.782 | 0.752 | 0.719 | 0.787 | 0.511 | 0.794 | 0.762 | 0.785 | 0.853 | 0.989 | 0.836 | 0.879 | 0.832 | 0.816 | 0.817
NCI-H2087 | 0.65 | 0.637 | 0.59 | 0.657 | 0.567 | 0.489 | 0.553 | 0.487 | 1.09 | 0.988 | 0.99 | 1.15 | 1.02 | 1.12 | 0.864 | 1.01 | 0.868 | 0.61 | 0.502
NCI-H2126 | 0.703 | 0.68 | 0.693 | 0.721 | 0.612 | 0.68 | 0.718 | 0.719 | 0.611 | 0.713 | 0.81 | 0.715 | 0.821 | 1.12 | 1.29 | 1.34 | 1.07 | 0.662 | 0.643
NCI-H2170 | 0.307 | 0.264 | 0.277 | 0.258 | 0.695 | 0.719 | 0.703 | 0.655 | 0.242 | 0.264 | 0.293 | 0.316 | 0.269 | 0.953 | 0.898 | 0.966 | 0.927 | 0.258 | 0.728
NCI-H2228 | 0.337 | 0.296 | 0.348 | 0.333 | 0.495 | 0.532 | 0.507 | 0.655 | 1.32 | 1.15 | 0.979 | 1.08 | 0.929 | 0.656 | 0.83 | 0.907 | 0.791 | 0.366 | 0.518
NCI-H2347 | 0.421 | 0.429 | 0.426 | 0.386 | 0.465 | 0.402 | 0.405 | 0.344 | 0.86 | 0.971 | 1.08 | 0.989 | 1.02 | – | 0.818 | 1.38 | 1.01 | 0.444 | 0.425
NCI-H2405 | 1.11 | 1.17 | 1.14 | 1.41 | 0.67 | 0.72 | 0.656 | 0.736 | 0.922 | 1.1 | 1.06 | 1.31 | 1.2 | 1 | 1.06 | 1.04 | 0.935 | 0.97 | 0.628
NCI-H3122 | 0.188 | 0.188 | 0.191 | 0.212 | 0.958 | 1.02 | 1.05 | 1.26 | 1.09 | 1.04 | 1.17 | 1.01 | 1.08 | 0.977 | 0.981 | 1 | 0.943 | 0.207 | 0.985
PC-3 [JPC-3] | 0.993 | 0.957 | 1.06 | 1.15 | 0.806 | 0.747 | 0.756 | 0.661 | 0.367 | 0.463 | 0.493 | 0.468 | 0.451 | 0.947 | 1.01 | 1.15 | 1.03 | – | 0.929
PC-14 | 0.137 | 0.124 | 0.133 | 0.126 | 0.937 | 1.06 | 0.849 | 1.01 | 0.305 | 0.295 | 0.304 | 0.379 | 0.45 | 0.981 | 1.04 | 1.14 | 0.975 | 0.133 | 0.871
RERF-LC-KJ | 0.517 | 0.443 | 0.432 | 0.541 | 0.605 | 0.605 | 0.515 | 0.617 | 0.761 | 0.758 | 0.815 | 0.734 | 0.799 | 0.819 | 0.894 | 0.873 | 0.867 | 0.498 | 0.677
SK-LU-1 | 1.01 | 1.05 | 0.994 | 0.911 | 0.345 | 0.385 | 0.395 | 0.352 | 0.903 | 0.942 | 1.18 | 0.976 | 0.871 | 0.852 | 0.795 | 0.826 | 0.63 | 0.926 | 0.452
SK-MES-1 | 0.981 | 0.961 | 0.924 | 0.985 | 0.629 | 0.654 | 0.585 | 0.578 | 0.43 | 0.472 | 0.508 | 0.491 | 0.58 | 0.856 | 1.08 | 1.25 | 0.959 | 0.91 | 0.643
SW 1573 | 0.899 | 0.792 | 0.857 | 0.861 | 0.728 | 0.684 | 0.715 | 0.765 | 0.996 | 1.1 | 1.14 | 1.27 | 1.41 | 0.75 | 0.767 | 0.922 | 0.864 | 0.831 | 0.566
